According to patent EP4678638A1, “NEW E3 UBIQUITIN LIGASE LIGAND, PROTEIN DEGRADATION AGENT AND USE THEREOF” (priority 2023, dated 2024):
Read-outs that look alike come from different tables or passages of the source. One block for each compound: values may come before it.

Key:
[1] = biological target: T1, human Cereblon WT GST-tagged protein (Homo sapiens, UniProt Q96SW2); test: CRBN binding, HTRF (CEREBLON BINDING kit); details: Table II-2, CRBN binding screening, HTRF; for inhibition at 0.5 µM: read-out: Inhibition rate (%) at 0.5µM; for inhibition at 2 µM: read-out: Inhibition rate (%) at 2 µM
T1 construct: purchased CISBIO 64BDCRBNPEH
Procedure, shortened: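 Competitive HTRF: GST-tagged human WT Cereblon mixed with compound, Thalidomide-Re tracer and GST Eu antibody, incubated 3 h at room temperature. Signals read at 620 and 665 nm.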

THP-1 = test: CCK-8 proliferation, THP-1; format: cell-based; details: Homo sapiens, 72 hours, read-out: Inhibitory activity (IC50) on tumor cell proliferation, THP-1
Procedure, shortened: (§1)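 CCK-8 viability readout; IC50 from growth-inhibition curve fitting. Cells plated, dosed 24h later with a 10-point series, top 10µM, 5-fold steps. Culture at 37°C, 5% CO2.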

AR = biological target: T2, AR (Homo sapiens, UniProt P10275+Q96SW2, T878A); test: Western blot degradation of AR (LnCap Cell); format: cell-based; details: Table D11
T2 construct: evaluate the effects of the compounds of the present disclosure on the expression of target proteins in cells; endogenous in cells; host or cells: LnCap
Description: (§2) Conventional Western blot assay was performed to evaluate the effects of the compounds of the present disclosure on the expression of target proteins in cells.
(§3) (1) Cell Seeding and Protein Harvesting: The selected cells were processed according to the cell seeding procedure and protein harvesting procedure in Table III-2. Table III-2 Cell Seeding and Protein Harvesting Procedures
(§4) (2) To the collected supernatant, 5X SDS sample loading buffer was added, followed by denaturation at 95°C for 5 minutes. The denatured samples were then separated by SDS-PAGE electrophoresis on a polyacrylamide gel. Proteins were transferred to a nitrocellulose membrane (0.45 µm NC membrane), blocked with blocking buffer at room temperature for 1 hour, and subjected to antibody incubation and development procedures according to the antibody manufacturer's instructions (Cell Signaling Technology).
(§5) Half-Maximal Degradation Concentration value (the drug concentration required for degrading proteins by 50%, abbreviated as DC50) reads method: comparing the grayscale values of Western blot bands from drug-treated samples with those from blank DMSO-treated controls, and identifying the drug concentration range at which the grayscale value is half that of the DMSO-treated control bands.
DC50 values can be calculated using ImageJ software to measure grayscale values of Western blot bands from drug-treated samples. […]

BXPC-3 = test: CCK-8 proliferation, BXPC-3; format: cell-based; details: Homo sapiens, 96 hours, read-out: Inhibitory activity (IC50) on tumor cell proliferation, BXPC-3
Description: (§6) The tumor cells used herein were cultured in a cell culture medium listed in table A1 at 37°C in an incubator with 5% CO2. Prior to experimentation, all cell lines used were correctly identified by STR profiling, and tested negative for mycoplasma contamination using a mycoplasma detection kit through routine screenings. Table A1. Tumor cells and cell culture medium used in the present disclosure
(§7) IC50 values of the compounds of the present disclosure (including the compounds in Table 1, and compounds of examples) were measured using the Meilun Cell Counting Kit-8 kit from Dalian Meilun Biotech Co., Ltd. Assay details are as follows: tumor cells were seeded in a 96-well plate at a density listed in Table A2. After 24h, 100 µL of the inoculated cells were treated with 0.5µL of the compounds of the present disclosure (including the compounds in Tables 1 and 2, and compounds of examples) at 10 different successively decreasing concentrations (starting at the highest concentration of 10µM; 5-fold serial dilutions). After the cells were treated with the compounds of the present disclosure for a period of time, the cell viability detection reagent was added to the culture medium for cell viability assessment according to the instructions provided with the CCK-8 kit. […] The growth inhibition of the compounds of the present disclosure on cells was plotted by Prism Graphpad software, and the IC50 values of the compounds of the present disclosure were calculated therefrom. […] Seeding protocol and treatment time for tumor cells

H520 = test: CCK-8 proliferation, H520; format: cell-based; details: Homo sapiens, NCI-H520, 96 hours, read-out: Inhibitory activity (IC50) on tumor cell proliferation, H520
Description: as §6, §7

Jurkat = test: CCK-8 proliferation, Jurkat; format: cell-based, Human; details: Homo sapiens, Jurkat; CCK-8; 96 hours; read-out: Inhibitory activity (IC50) on tumor cell proliferation, Jurkat
Procedure, shortened: as §1

LNcap = test: CCK-8 proliferation, LNcap; format: cell-based; details: Homo sapiens, LNCaP; CCK-8; 96 hours; read-out: Inhibitory activity (IC50) on tumor cell proliferation, Lncap
Procedure, shortened: as §1

MGC-803 = test: CCK-8 proliferation, MGC-803 (heads: MGC80-3, MGC803); format: cell-based, Human; details: Homo sapiens, MGC-803, CCK-8, 72 hours
Procedure, shortened: as §1

SW620 = test: CCK-8 proliferation, SW620; format: cell-based; details: Homo sapiens, SW-620; CCK-8; 96 hours; read-out: Inhibitory activity (IC50) on tumor cell proliferation, SW620
Procedure, shortened: as §1

BCR-ABL = biological target: T3, BCR-ABL (Homo sapiens, UniProt P00519+P11274+Q96SW2, E27K); test: Western blot degradation of BCR-ABL (K562 Cell); format: cell-based; details: Table D15
T3 construct: evaluate the effects of the compounds of the present disclosure on the expression of target proteins in cells; endogenous in cells; host or cells: K562
Description: as §2, §3, §4, §5
(§8) DC50 values can be calculated using ImageJ software to measure grayscale values of Western blot bands from drug-treated samples. The concentration-response curve is fitted to estimate the drug concentration corresponding to half the grayscale value.
(§9) Target protein remaining (%) refers to the percentage of target protein remaining in hPBMC cells after treatment with protein degrader compounds.
(§10) Calculation method for target protein remaining (%): Use ImageJ software to measure grayscale values of Western blot bands from drug (protein degrader)-treated samples. The grayscale value of drug-treated bands is divided by that of internal control protein bands, and the resulting quotient is normalized to obtain the relative percentage of remaining target protein after protein degrader treatment. […]

CFPAC-1 = test: CCK-8 proliferation, CFPAC-1; format: cell-based; details: Homo sapiens, 72 or 96 hours, read-out: Inhibitory activity (IC50) on tumor cell proliferation, CFPAC-1
Description: as §6, §7

CCRF-CEM = test: CCK-8 proliferation, CCRF-CEM; format: cell-based, Human; details: Homo sapiens, CCRF-CEM; CCK-8; 96 hours; read-out: Inhibitory activity (IC50) on tumor cell proliferation, CCRF-CEM
Procedure, shortened: as §1

CAL-62 = test: CCK-8 proliferation, CAL-62; format: cell-based; details: Homo sapiens, 72 hours, read-out: Inhibitory activity (IC50) on tumor cell proliferation, CAL-62
Description: as §6, §7

Vcap = test: CCK-8 proliferation, Vcap; format: cell-based; details: Homo sapiens, 96 hours, read-out: Inhibitory activity (IC50) on tumor cell proliferation, Vcap
Description: as §6
IC50 values of the compounds of the present disclosure (including the compounds in Table 1, and compounds of examples) were measured using the Meilun Cell Counting Kit-8 kit from Dalian Meilun Biotech Co., Ltd. Assay details are as follows: tumor cells were seeded in a 96-well plate at a density listed in Table A2. After 24h, 100 µL of the inoculated cells were treated with 0.5µL of the compounds of the present disclosure (including the compounds in Tables 1 and 2, and compounds of examples) at 10 different successively decreasing concentrations (starting at the highest concentration of 10µM; 5-fold serial dilutions). […] The growth inhibition of the compounds of the present disclosure on cells was plotted by Prism Graphpad software, and the IC50 values of the compounds of the present disclosure were calculated therefrom. […]

TRK = test: Western blot degradation of TRK / NTRK (SK-N-AS Cell); format: cell-based; details: Table D14
Description: as §2, §3, §4, §5, §8, §9, §10

DU-145 = test: CCK-8 proliferation, DU-145; format: cell-based; details: Homo sapiens, 96 hours, read-out: Inhibitory activity (IC50) on tumor cell proliferation, DU-145
Description: as §6, §7

[2] = read-out: Inhibitory activity (IC50) on tumor cell proliferation, MGC803

T3 sequence (P11274+P00519 fused, stated change not applied): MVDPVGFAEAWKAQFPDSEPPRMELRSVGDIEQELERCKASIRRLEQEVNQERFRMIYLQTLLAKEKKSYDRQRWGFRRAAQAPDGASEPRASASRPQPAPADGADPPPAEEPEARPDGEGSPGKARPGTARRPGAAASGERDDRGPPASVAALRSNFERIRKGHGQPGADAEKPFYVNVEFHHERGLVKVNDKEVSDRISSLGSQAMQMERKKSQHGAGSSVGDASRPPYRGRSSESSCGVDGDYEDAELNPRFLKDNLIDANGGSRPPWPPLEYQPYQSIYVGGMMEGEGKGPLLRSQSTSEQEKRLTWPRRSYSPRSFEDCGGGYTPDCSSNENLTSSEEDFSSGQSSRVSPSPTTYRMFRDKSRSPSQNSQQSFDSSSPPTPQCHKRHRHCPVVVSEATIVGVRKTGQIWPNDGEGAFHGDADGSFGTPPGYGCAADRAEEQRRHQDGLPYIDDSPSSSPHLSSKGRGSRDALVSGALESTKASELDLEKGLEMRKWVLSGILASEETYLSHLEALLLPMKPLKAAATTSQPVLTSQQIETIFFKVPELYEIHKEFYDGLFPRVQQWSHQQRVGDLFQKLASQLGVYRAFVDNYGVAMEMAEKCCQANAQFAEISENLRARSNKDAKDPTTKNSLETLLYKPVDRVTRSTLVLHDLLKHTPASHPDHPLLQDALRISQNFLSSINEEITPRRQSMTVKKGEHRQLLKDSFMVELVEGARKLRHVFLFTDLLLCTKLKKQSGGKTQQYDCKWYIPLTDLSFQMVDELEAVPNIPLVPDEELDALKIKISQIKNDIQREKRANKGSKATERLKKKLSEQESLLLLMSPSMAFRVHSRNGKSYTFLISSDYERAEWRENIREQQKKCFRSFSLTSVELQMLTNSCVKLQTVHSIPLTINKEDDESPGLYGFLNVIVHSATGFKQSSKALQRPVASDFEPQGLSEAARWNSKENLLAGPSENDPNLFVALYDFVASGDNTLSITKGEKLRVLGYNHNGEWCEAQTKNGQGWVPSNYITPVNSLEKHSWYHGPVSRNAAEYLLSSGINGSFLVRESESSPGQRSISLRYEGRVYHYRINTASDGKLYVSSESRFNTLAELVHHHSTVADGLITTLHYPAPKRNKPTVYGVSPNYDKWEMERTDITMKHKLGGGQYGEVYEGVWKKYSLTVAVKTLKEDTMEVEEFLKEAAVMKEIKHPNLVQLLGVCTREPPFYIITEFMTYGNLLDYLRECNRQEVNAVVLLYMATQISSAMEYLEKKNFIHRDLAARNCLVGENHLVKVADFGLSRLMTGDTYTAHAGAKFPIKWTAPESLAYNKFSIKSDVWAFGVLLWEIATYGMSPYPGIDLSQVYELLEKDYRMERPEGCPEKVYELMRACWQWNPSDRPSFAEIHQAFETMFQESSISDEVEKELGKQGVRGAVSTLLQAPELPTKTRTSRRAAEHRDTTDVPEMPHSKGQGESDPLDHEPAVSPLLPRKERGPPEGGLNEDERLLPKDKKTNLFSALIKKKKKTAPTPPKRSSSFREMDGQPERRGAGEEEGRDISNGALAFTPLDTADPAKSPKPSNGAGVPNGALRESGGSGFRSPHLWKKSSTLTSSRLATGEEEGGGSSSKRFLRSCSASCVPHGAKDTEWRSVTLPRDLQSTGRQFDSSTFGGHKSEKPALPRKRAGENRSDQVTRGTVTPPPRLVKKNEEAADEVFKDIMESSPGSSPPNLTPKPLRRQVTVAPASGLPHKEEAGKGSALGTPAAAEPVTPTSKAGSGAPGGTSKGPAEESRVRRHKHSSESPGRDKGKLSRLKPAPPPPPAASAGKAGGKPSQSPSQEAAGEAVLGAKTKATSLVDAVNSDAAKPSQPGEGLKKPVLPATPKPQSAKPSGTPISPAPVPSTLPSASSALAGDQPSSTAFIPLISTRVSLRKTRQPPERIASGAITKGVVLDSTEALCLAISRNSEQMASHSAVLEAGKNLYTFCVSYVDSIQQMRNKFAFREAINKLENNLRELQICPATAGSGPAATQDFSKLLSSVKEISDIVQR
T3 sequence (Q16531 whole entry, stated change not applied, further chain): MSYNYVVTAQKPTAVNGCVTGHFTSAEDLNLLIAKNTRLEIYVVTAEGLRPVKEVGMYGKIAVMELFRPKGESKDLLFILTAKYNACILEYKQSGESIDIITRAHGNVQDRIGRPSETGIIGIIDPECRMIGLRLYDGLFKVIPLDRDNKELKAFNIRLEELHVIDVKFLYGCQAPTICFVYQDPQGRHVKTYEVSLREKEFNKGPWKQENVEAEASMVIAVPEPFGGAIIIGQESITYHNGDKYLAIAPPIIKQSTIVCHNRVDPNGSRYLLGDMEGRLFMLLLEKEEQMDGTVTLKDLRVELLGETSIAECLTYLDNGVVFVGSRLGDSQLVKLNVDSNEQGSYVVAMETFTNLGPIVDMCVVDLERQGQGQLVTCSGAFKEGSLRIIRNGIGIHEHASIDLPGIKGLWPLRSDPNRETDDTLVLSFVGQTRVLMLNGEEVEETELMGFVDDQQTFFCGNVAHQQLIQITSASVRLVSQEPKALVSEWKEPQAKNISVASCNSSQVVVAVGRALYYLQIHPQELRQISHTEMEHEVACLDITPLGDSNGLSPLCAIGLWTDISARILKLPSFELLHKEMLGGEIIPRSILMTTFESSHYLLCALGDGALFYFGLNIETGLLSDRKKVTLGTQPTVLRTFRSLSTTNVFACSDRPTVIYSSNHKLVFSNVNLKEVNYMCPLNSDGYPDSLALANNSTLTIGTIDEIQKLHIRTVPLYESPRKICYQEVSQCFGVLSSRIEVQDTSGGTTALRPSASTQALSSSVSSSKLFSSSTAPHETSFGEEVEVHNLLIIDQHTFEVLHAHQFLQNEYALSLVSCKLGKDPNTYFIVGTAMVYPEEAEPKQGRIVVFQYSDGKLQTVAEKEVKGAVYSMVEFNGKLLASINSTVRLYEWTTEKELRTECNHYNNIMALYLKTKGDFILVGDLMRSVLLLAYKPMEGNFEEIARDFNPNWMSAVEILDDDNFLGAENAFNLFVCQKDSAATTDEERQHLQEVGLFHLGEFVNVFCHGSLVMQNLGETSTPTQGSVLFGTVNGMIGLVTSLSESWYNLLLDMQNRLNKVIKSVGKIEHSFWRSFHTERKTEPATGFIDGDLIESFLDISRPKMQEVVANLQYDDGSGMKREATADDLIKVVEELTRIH
T3 sequence (Q96SW2 whole entry, stated change not applied): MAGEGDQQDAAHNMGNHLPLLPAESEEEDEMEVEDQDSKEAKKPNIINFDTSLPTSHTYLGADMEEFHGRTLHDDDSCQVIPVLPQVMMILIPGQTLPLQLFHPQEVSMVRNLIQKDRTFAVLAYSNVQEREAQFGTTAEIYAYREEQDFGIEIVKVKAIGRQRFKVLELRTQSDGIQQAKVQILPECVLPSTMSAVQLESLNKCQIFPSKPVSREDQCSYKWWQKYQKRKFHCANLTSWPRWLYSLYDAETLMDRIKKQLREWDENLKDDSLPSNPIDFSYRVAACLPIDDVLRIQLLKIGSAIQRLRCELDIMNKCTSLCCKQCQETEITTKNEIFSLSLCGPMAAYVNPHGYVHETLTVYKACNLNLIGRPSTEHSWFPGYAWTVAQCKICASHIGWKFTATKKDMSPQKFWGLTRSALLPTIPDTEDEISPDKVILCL
T1 sequence (Q96SW2 whole entry): as the sequence (Q96SW2 whole entry, stated change not applied) above
T2 sequence (P10275 whole entry T878A): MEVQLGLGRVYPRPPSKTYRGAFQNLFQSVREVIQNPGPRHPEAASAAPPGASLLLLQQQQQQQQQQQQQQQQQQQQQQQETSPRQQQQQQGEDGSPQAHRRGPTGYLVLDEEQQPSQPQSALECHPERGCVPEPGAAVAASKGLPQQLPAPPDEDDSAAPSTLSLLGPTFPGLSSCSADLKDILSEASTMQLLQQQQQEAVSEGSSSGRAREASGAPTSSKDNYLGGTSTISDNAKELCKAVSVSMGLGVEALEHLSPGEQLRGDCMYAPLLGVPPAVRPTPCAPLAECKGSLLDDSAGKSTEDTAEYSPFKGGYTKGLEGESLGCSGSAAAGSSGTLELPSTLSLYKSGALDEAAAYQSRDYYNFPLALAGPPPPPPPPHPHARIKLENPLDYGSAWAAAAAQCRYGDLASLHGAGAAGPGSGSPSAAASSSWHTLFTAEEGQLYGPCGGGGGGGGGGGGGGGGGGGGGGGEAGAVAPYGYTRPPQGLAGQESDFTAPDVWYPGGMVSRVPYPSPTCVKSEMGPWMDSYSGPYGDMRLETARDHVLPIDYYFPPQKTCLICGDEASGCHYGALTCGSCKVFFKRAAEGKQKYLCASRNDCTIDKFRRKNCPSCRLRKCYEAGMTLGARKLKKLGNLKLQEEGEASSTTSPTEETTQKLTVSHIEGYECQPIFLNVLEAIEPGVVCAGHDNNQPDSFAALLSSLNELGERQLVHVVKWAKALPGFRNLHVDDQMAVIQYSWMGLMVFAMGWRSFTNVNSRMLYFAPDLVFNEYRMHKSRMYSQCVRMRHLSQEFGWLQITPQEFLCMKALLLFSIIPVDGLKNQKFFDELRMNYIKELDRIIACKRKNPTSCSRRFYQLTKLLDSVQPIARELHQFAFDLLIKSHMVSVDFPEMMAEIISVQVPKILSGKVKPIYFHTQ
T2 sequence (Q96SW2 whole entry): as the sequence (Q96SW2 whole entry, stated change not applied) above
T2 sequence (Q16531 whole entry partner): as the sequence (Q16531 whole entry, stated change not applied, further chain) above

Compound: Cn1cc(-c2cc(S(C)(=O)=O)ccc2OCc2cccc(NC3CCC(=O)NC3=O)c2)c2cc[nH]c2c1=O (centres unmarked) [GT-04641, 3-((3-((2-(6-methyl-7-oxo-6,7-dihydro-1H-pyrrolo[2,3-c]pyridin-4-yl)-4-(methylsulfonyl)phenoxy)methyl)phenyl)amino)piperidine-2,6-dione]
inhibition at 0.5 µM [1]: 20 to 30%
inhibition at 2 µM [1]: 60 to 80%
IC50 (THP-1): 500 to 1000 nM
Degradation of substrate protein AR (substrate protein remaining %) (AR): A (A is defined as 0% ≤ substrate protein remaining % ≤ 80%)
IC50 (BXPC-3): 500 to 1000 nM
IC50 (H520): 500 to 1000 nM

Compound: Cc1ccc(C(=O)Nc2ccc(CN3CCN(Cc4ccc(C5CCC(=O)NC5=O)c(F)c4)CC3)c(C(F)(F)F)c2)cc1C#Cc1cnc2cccnn12 (centres unmarked) [GT-03937, N-(4-((4-(4-(2,6-dioxopiperidin-3-yl)-3-fluorobenzyl)piperazin-1-yl)methyl)-3-(trifluoromethyl)phenyl)-3-(imidazo[1,2-b]pyridazin-3-ylethynyl)-4-methylbenzamide]
IC50 (Jurkat): 50 to 100 nM
IC50 (LNcap): 50 to 100 nM
IC50 (MGC-803; [2]): 100 to 500 nM
IC50 (SW620): 50 to 100 nM
Degradation of substrate protein BCR-ABL (substrate protein remaining %) (BCR-ABL): A (A is defined as 0% ≤ substrate protein remaining % ≤ 80%)
IC50 (CFPAC-1): 100 to 500 nM
IC50 (CCRF-CEM): 50 to 100 nM

Compound: O=C1CCC(c2ccc(CN3CCC(N4CCN(c5ncc(C(=O)Nc6ccc(OC(F)(F)Cl)cc6)cc5-c5cc[nH]n5)CC4)CC3)cc2F)C(=O)N1 (centres unmarked) [GT-04059, N-(4-(chlorodifluoromethoxy)phenyl)-6-(4-(1-(4-(2,6-dioxopiperidin-3-yl)-3-fluorobenzyl)piperidin-4-yl)piperazin-1-yl)-5-(1H-pyrazol-3-yl)nicotinamide]
IC50 (MGC-803; [2]): 500 to 1000 nM
IC50 (SW620): 100 to 500 nM
Degradation of substrate protein BCR-ABL (substrate protein remaining %) (BCR-ABL): A (A is defined as 0% ≤ substrate protein remaining % ≤ 80%)

Compound: O=C1CC[C@H](N2Cc3cc(N4CCN(CC5CCN(c6ccc([C@@H]7c8ccc(O)cc8CC[C@@H]7c7ccccc7)cc6)CC5)CC4)ccc3C2=O)C(=O)N1 [ARV-471, reference compound]
IC50 (Jurkat): > 10000 nM
IC50 (CAL-62): > 10000 nM
IC50 (MGC-803; read-out: Inhibitory activity (IC50) on tumor cell proliferation, MGC80-3): > 10000 nM
IC50 (SW620): 1000 to 5000 nM
IC50 (Vcap): > 10000 nM
IC50 (CCRF-CEM): > 10000 nM

Compound: O=C1CCC(c2ccc(CN3CCC(N4CCN(c5ncc(C(=O)Nc6ccc(OC(F)(F)Cl)cc6)cc5-c5cc[nH]n5)CC4)CC3)cc2)C(=O)N1 (centres unmarked) [GT-04058, N-(4-(chlorodifluoromethoxy)phenyl)-6-(4-(1-(4-(2,6-dioxopiperidin-3-yl)benzyl)piperidin-4-yl)piperazin-1-yl)-5-(1H-pyrazol-3-yl)nicotinamide]
Degradation of substrate protein BCR-ABL (substrate protein remaining %) (BCR-ABL): A (A is defined as 0% ≤ substrate protein remaining % ≤ 80%)

Continued, in another order:

inhibition at 0.5 µM [1]: 60 to 80%
inhibition at 2 µM [1]: 80 to 100%
Compound: CN(Cc1ccc(C2CCC(=O)NC2=O)cc1)C1CCN(c2cccc(-c3cnc4ccc(N5CCC[C@@H]5c5cccc(F)c5)nn34)n2)CC1 (stereo partly drawn) [GT-03898, 3-(4-(((1-(6-(6-((R)-2-(3-fluorophenyl)pyrrolidin-1-yl)imidazo[1,2-b]pyridazin-3-yl)pyridin-2-yl)piperidin-4-yl)(methyl)amino)methyl)phenyl)piperidine-2,6-dione]
Degradation of substrate protein TRK (substrate protein remaining %) (TRK): A (A is defined as 0% ≤ substrate protein remaining % ≤ 80%)

IC50 (Jurkat): 100 to 500 nM
IC50 (Vcap): 500 to 1000 nM
IC50 (CCRF-CEM): 100 to 500 nM
Compound: O=C1CCC(c2ccc(CN3CCN(c4ccc([C@@H]5c6ccc(O)cc6CC[C@@H]5c5ccccc5)cc4)CC3)cc2)C(=O)N1 (stereo partly drawn) [GT-03856, 3-(4-((4-(4-((1R,2S)-6-hydroxy-2-phenyl-1,2,3,4-tetrahydronaphthalen-1-yl)phenyl)piperazin-1-yl)methyl)phenyl)piperidine-2,6-dione]
IC50 (CAL-62): 100 to 500 nM

IC50 (DU-145): 500 to 1000 nM
Compound: Cc1ccc(-c2c(C)noc2C)cc1N(CC1CCN(Cc2ccc(N3CCC(=O)NC3=O)cn2)CC1)c1ccc(C2(C#N)CC2)cc1 [GT-06411, 1-(4-((5-(3,5-dimethylisoxazol-4-yl)-2-methylphenyl)((1-((5-(2,4-dioxotetrahydropyrimidin-1(2H)-yl)pyridin-2-yl)methyl)piperidin-4-yl)methyl)amino)phenyl)cyclopropane-1-carbonitrile]
Degradation of substrate protein AR (substrate protein remaining %) (AR): A (A is defined as 0% ≤ substrate protein remaining % ≤ 80%)
